Reference: patent publication US20070099259A1, “ELECTROCHEMICAL ASSAY FOR THE IDENTIFICATION OF MICROORGANISMS” (RAPID LABORATORY MICROSYSTEMS INC., priority 2003, published 2007)
Like-named read-outs stand apart in the source and are kept apart here.

What was measured:
E. aerogenes ATCC13048e = assay: Relative respiratory activity with 22 effectors (Example 3); assay type: cell-based, Enterobacter aerogenes; settings: Klebsiella aerogenes, ATCC13048E; for activity at 10000 µM: read-out: relative %-respiratory activity
Description: (§1) In this example, each microorganism is subjected to 22 different effector compounds in addition to control measurements. […] For each microorganism, duplicate measurements were made of 22 different effector compounds. In addition, duplicate measurements were made a control test containing no effector compound. One additional measurement was made of a control solution containing the microorganism with ferricyanide but without effector or DCIP.
(§2) In this example, each normalized data set containing duplicate measurements for each of 22 effector compounds is referenced to the duplicate internal controls to allow batch-to-batch comparison. The obtained signals of charge per unit electrode area for the duplicate control measurements are averaged and set at 100% respiratory cycle activity. […] The data set used to generate pattern recognition plots consists of 5 replicate batches (each batch containing duplicate measurements for each of 22 effector compounds) for each cell culture (10 strains). This is used to generate a 50 (columns)×22 (rows) matrix. The matrix is imported into MATLAB (Version 6.0). Factor analysis is performed using the MATLAB Chemometric Toolbox (Version 2.3) and involves the generation of reduced eigenvectors to determine the optimal number of factors, examination of the resulting residuals plots for randomness, and the generation of scores for the first four principle components.

P. aeruginosa = assay: as above; assay type: cell-based, Pseudomonas aeruginosa; settings: Pseudomonas aeruginosa; for activity at 10000 µM: read-out: relative %-respiratory activity
Description: as §1, §2

E. faecalis = assay: as above; assay type: cell-based, Enterococcus faecalis; settings: Enterococcus faecalis; for activity at 10000 µM: read-out: relative %-respiratory activity
Description: as §1, §2

[1] = system: Staphylococcus aureus ATCC 6538P; assay: Respiration assay (Example 1), electrochemical ferricyanide/DCIP mediator consumption; assay type: cell-based; settings: effector 10 mM; for slope: 5 μM DCIP, 50 mM ferricyanide, 35° C.; for normalized slope: area normalized; for relative activity: buffer set as 100%
Experimental: (§3) The ferricyanide solution is added so that the final ferricyanide concentrations is 50 mM.
(§4) The bacterial suspensions were adjusted to a MacFarland Standard of 5.0 (5.0×10sup.8 cfu/mL) or an optical density of 1.2 measured at 625 nm and cell growth was stopped by cooling the bacterial suspension for a minimum of 15 min in an ice-bath.

E. coli Neotype = assay: Relative respiratory activity with 22 effectors (Example 3); assay type: cell-based; settings: Escherichia coli; for activity at 10000 µM: read-out: relative %-respiratory activity
Description: as §1, §2

E. coli B = assay: as above; assay type: cell-based; settings: Escherichia coli, 5 μM DCIP, no effector = 100%, n = 10; for activity at 10000 µM: effector 10 mM, read-out: relative %-respiratory activity
Description: as §1, §2

E. coli HB101 = assay: as above; assay type: cell-based; settings: Escherichia coli
Description: as §1, §2

E. coli JM105 = assay: as above; assay type: cell-based; settings: Escherichia coli
Description: as §1, §2

S. aureus ATCC6538P = assay: as above; assay type: cell-based, Staphylococcus aureus; settings: Staphylococcus aureus, ATCC6538P; for activity at 10000 µM: read-out: relative %-respiratory activity
Description: as §1, §2

S. cerevisiae = assay: as above; assay type: cell-based, Saccharomyces cerevisiae; settings: Saccharomyces cerevisiae; for activity at 10000 µM: read-out: relative %-respiratory activity
Description: as §1, §2

P. vulgaris ATCC6380 = assay: as above; assay type: cell-based, Proteus vulgaris; settings: Proteus vulgaris
Description: as §1, §2

[2] = system: Enterobacter aerogenes ATCC 13048e; assay: Respiration assay (Example 1), electrochemical ferricyanide/DCIP mediator consumption; assay type: cell-based; settings: effector 10 mM; for slope: 5 μM DCIP, 50 mM ferricyanide, 35° C.; for normalized slope: area normalized; for relative activity: buffer set as 100%
Experimental: as §3, §4

[3] = effector 10 mM, 5 μM DCIP, no effector = 100%, n = 26
[4] = HB101, read-out: relative %-respiratory activity
[5] = JM105, read-out: relative %-respiratory activity
[6] = ATCC6380, read-out: relative %-respiratory activity
[7] = effector 20 mM, 5 μM DCIP, no effector = 100%, n = 26
[8] = effector 20 mM, 5 μM DCIP, no effector = 100%, n = 20
[9] = effector 10 mM, 5 μM DCIP, no effector = 100%, n = 20

Row | SMILES | activity at 10000 µM (E. aerogenes ATCC13048e) [%] | activity at 10000 µM (P. aeruginosa) [%] | activity at 10000 µM (E. faecalis) [%] | slope [1] [μC/min] | normalized slope [1] [μC/min*mm^2] | relative activity [1] [%] | activity at 10000 µM (E. coli Neotype; [3]) [%] | activity at 10000 µM (E. coli B) [%] | activity at 10000 µM (E. coli HB101; [4]) [%] | activity at 10000 µM (E. coli JM105; [5]) [%] | activity at 10000 µM (S. aureus ATCC6538P) [%] | activity at 10000 µM (S. cerevisiae) [%] | activity at 10000 µM (P. vulgaris ATCC6380; [6]) [%] | slope [2] [μC/min] | normalized slope [2] [μC/min*mm^2] | relative activity [2] [%] | other results
1 | N=C(N)NCCC[C@H](N)C(=O)O [L-arginine] | 129 | 155 | 130 | 9.1 | 5.3 | 100 | 114 | 137 | 114 | 163 | 132 | 139 | 149 |  |  |  | 
2 | O=[N+]([O-])[O-].[K+] [nitrate, potassium nitrate] |  |  |  | 6.9 | 4.1 | 76 |  |  |  |  |  |  |  | 3.7 | 2.2 | 23 | 
3 | C[C@H](O)[C@H](O)[C@@H](O)[C@@H](O)C=O [L-rhamnose] |  |  |  |  |  |  |  |  |  |  |  |  |  |  |  |  | activity at 20000 µM (E. aerogenes ATCC13048e; [7]): 110%; activity at 20000 µM (P. aeruginosa; effector 20 mM, 5 μM DCIP, no effector = 100%, n = 18): 94%; activity at 20000 µM (E. faecalis; [8]): 105%; activity at 20000 µM (E. coli Neotype; [7]): 105%; activity at 20000 µM (E. coli B; effector 20 mM): 119%; activity at 20000 µM (E. coli HB101; HB101, effector 20 mM, 5 μM DCIP, no effector = 100%, n = 18): 103%; activity at 20000 µM (E. coli JM105; JM105, effector 20 mM, 5 μM DCIP, no effector = 100%, n = 10): 116%; activity at 20000 µM (S. aureus ATCC6538P; [8]): 101%; activity at 20000 µM (S. cerevisiae; effector 20 mM, 5 μM DCIP, no effector = 100%, n = 10): 124%; activity at 20000 µM (P. vulgaris ATCC6380; ATCC6380, effector 20 mM, 5 μM DCIP, no effector = 100%, n = 20): 145%
4 | N[C@@H](Cc1c[nH]c2ccccc12)C(=O)O [L-tryptophan] | 126 | 170 | 232 |  |  |  |  | 98 | 129 | 133 | 139 | 188 | 521 |  |  |  | activity at 10000 µM (E. coli Neotype): 93%
5 | CC(=O)C(=O)O [Pyruvic acid] |  |  |  | 14.8 | 8.7 | 164 | 126 | 120 |  |  |  |  |  | 23.4 | 13.7 | 143 | activity at 10000 µM (E. aerogenes ATCC13048e; [3]): 209%; activity at 10000 µM (P. aeruginosa; effector 10 mM, 5 μM DCIP, no effector = 100%, n = 18): 125%; activity at 10000 µM (E. faecalis; [9]): 136%; activity at 10000 µM (E. coli HB101; HB101, effector 10 mM, 5 μM DCIP, no effector = 100%, n = 18, read-out: relative %-respiratory activity): 169%; activity at 10000 µM (E. coli JM105; JM105, effector 10 mM, 5 μM DCIP, no effector = 100%, n = 10, read-out: relative %-respiratory activity): 249%; activity at 10000 µM (S. aureus ATCC6538P; [9]): 313%; activity at 10000 µM (S. cerevisiae; effector 10 mM, 5 μM DCIP, no effector = 100%, n = 10): 109%; activity at 10000 µM (P. vulgaris ATCC6380; ATCC6380, effector 10 mM, 5 μM DCIP, no effector = 100%, n = 20, read-out: relative %-respiratory activity): 344%
